Test results as given in patent publication US6054435A, “6-O-substituted macrolides having antibacterial activity” (priority 1999, dated 2000).
In brackets after ≈: the same amount, converted by molar mass.

Columns and labels:
Assay in all cases: in vitro antibacterial activity (MIC), agar dilution
Assay type in all cases: cell-based
[1] = tested on: Micrococcus luteus ATCC 4698; conditions: organism code PP; BHI agar, 35-37° C., 20 to 24 hours; unit assumed
Summary of the method: (§1)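 Endpoint: lowest concentration with no growth, slight haze or sparsely isolated colonies at the inoculum spot, judged against a compound-free BHI control. Strains were replicator-inoculated at 1:100 (1:10 for Streptococcus and other slow growers).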

[2] = tested on: Streptococcus pyogenes 930; conditions: organism code MM; BHI agar, 35-37° C., 20 to 24 hours; unit assumed
Summary of the method: (§2)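 BHI agar incorporation method; twelve compound concentrations. Streptococcus and other slow growers inoculated at 1:10, other strains at 1:100. Visual MIC read-out versus growth control.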

[3] = tested on: Streptococcus pyogenes EES61; conditions: organism code LL; BHI agar, 35-37° C., 20 to 24 hours; unit assumed
Summary of the method: as §2

[4] = tested on: Staphylococcus aureus 1775; conditions: organism code GG; BHI agar, 35-37° C., 20 to 24 hours; unit assumed
Summary of the method: as §2

[5] = tested on: Micrococcus luteus ATCC 9341; conditions: organism code OO; BHI agar, 35-37° C., 20 to 24 hours; unit assumed
Summary of the method: as §1

[6] = tested on: Staphylococcus aureus CMX 642A; conditions: organism code DD; BHI agar, 35-37° C., 20 to 24 hours; unit assumed
Summary of the method: as §2

[7] = tested on: Streptococcus pyogenes PIU 2548; conditions: organism code NN; BHI agar, 35-37° C., 20 to 24 hours; unit assumed
Summary of the method: as §2

[8] = tested on: Streptococcus Pneumonia 5649; conditions: organism code ZZA; BHI agar, 35-37° C., 20 to 24 hours; unit assumed
Summary of the method: as §2

[9] = tested on: Streptococcus Pneumonia ATCC6303; conditions: organism code XX; BHI agar, 35-37° C., 20 to 24 hours; unit assumed
Summary of the method: as §2

[10] = tested on: Staphylococcus aureus A-5278; conditions: organism code CC; BHI agar, 35-37° C., 20 to 24 hours; unit assumed
Summary of the method: as §2

[11] = tested on: Staphylococcus epidermidis 3519; conditions: organism code HH; BHI agar, 35-37° C., 20 to 24 hours; unit assumed
Summary of the method: as §2

Escherichia coli JUHL = conditions: organism code QQ; BHI agar, 35-37° C., 20 to 24 hours; unit assumed
Summary of the method: as §2

[12] = tested on: Nocardia Asteroides ATCC9970; conditions: organism code VV; BHI agar, 35-37° C., 20 to 24 hours; unit assumed
Summary of the method: as §2

[13] = tested on: Streptococcus agalactiae CMX 508; conditions: organism code KK; BHI agar, 35-37° C., 20 to 24 hours; unit assumed
Summary of the method: as §2

[14] = tested on: Staphylococcus aureus NCTC10649M; conditions: organism code EE; BHI agar, 35-37° C., 20 to 24 hours; unit assumed
Summary of the method: as §2

[15] = tested on: Staphylococcus aureus A5177; conditions: organism code BB; BHI agar, 35-37° C., 20 to 24 hours; unit assumed
Summary of the method: as §2

Candida albicans CCH 442 = conditions: organism code TT; BHI agar, 35-37° C., 20 to 24 hours; unit assumed
Summary of the method: as §2

[16] = tested on: Streptococcus Pneumonia GYR 1171; conditions: organism code YY; BHI agar, 35-37° C., 20 to 24 hours; unit assumed
Summary of the method: as §2

[17] = tested on: Staphylococcus aureus ATCC 6538P; conditions: organism code AA; BHI agar, 35-37° C., 20 to 24 hours; unit assumed
Summary of the method: as §2

[18] = tested on: Streptococcus Pneumonia 5979; conditions: organism code ZZ; BHI agar, 35-37° C., 20 to 24 hours; unit assumed
Summary of the method: as §2

[19] = tested on: Haemophilis Influenzae DILL AMP R; conditions: organism code WW; BHI agar, 35-37° C., 20 to 24 hours; unit assumed
Summary of the method: as §2

[20] = tested on: Staphylococcus aureus CMX 553; conditions: organism code FF; BHI agar, 35-37° C., 20 to 24 hours; unit assumed
Summary of the method: as §2

[21] = tested on: Mycobacterium smegmatis ATCC 114; conditions: organism code UU; BHI agar, 35-37° C., 20 to 24 hours; unit assumed
Summary of the method: as §2

Escherichia coli SS = conditions: organism code RR; BHI agar, 35-37° C., 20 to 24 hours; unit assumed
Summary of the method: as §2

[22] = tested on: Enterococcus faecium ATCC 8043; conditions: organism code II; BHI agar, 35-37° C., 20 to 24 hours; unit assumed
Summary of the method: as §2

[23] = tested on: Streptococcus bovis A-5169; conditions: organism code JJ; BHI agar, 35-37° C., 20 to 24 hours; unit assumed
Summary of the method: as §2

Escherichia coli DC-2 = conditions: organism code SS; BHI agar, 35-37° C., 20 to 24 hours; unit assumed
Summary of the method: as §2

Structure (SMILES)	MIC [1]	MIC [2]	MIC [3]	MIC [4]	MIC [5]	MIC [6]	MIC [7]	MIC [8]	MIC [9]	MIC [10]	MIC [11]	MIC (Escherichia coli JUHL)	MIC [12]	MIC [13]	MIC [14]	MIC [15]	MIC (Candida albicans CCH 442)	MIC [16]	MIC [17]	MIC [18]	other results
CC[C@H]1OC(=O)[C@H](C)C(=O)[C@H](C)[C@@H](O[C@@H]2O[C@H](C)C[C@H](N(C)C)[C@H]2O)[C@](C)(OC/C=C/c2ccc(-c3cncnc3)s2)C[C@@H](C)C(=O)[C@H](C)[C@H]2NC(=O)O[C@@]21C [Example 70]	0.1 µg/mL (≈ 0.125 µM)	12.5 µg/mL (≈ 15.6 µM)	0.01 µg/mL (≈ 0.0125 µM)	> 100 µg/mL	0.02 µg/mL (≈ 0.025 µM)	0.1 µg/mL (≈ 0.125 µM)	0.1 µg/mL (≈ 0.125 µM)	0.25 µg/mL (≈ 0.313 µM)	0.015 µg/mL (≈ 0.0188 µM)	> 100 µg/mL	0.1 µg/mL (≈ 0.125 µM)	100 µg/mL (≈ 125 µM)	0.02 µg/mL (≈ 0.025 µM)	0.02 µg/mL (≈ 0.025 µM)	0.2 µg/mL (≈ 0.25 µM)	0.2 µg/mL (≈ 0.25 µM)	> 100 µg/mL	0.015 µg/mL (≈ 0.0188 µM)	0.1 µg/mL (≈ 0.125 µM)	4 µg/mL (≈ 5.01 µM)	MIC [19]: 4 µg/mL (≈ 5.01 µM); MIC [20]: 0.1 µg/mL (≈ 0.125 µM); MIC [21]: 0.39 µg/mL (≈ 0.488 µM); MIC (Escherichia coli SS): 0.78 µg/mL (≈ 0.976 µM); MIC [22]: 0.05 µg/mL (≈ 0.0626 µM); MIC [23]: 0.01 µg/mL (≈ 0.0125 µM); MIC (Escherichia coli DC-2): 100 µg/mL (≈ 125 µM)
CC[C@H]1OC(=O)[C@H](C)C(=O)[C@H](C)[C@@H](O[C@@H]2O[C@H](C)C[C@H](N(C)C)[C@H]2O)[C@](C)(OC/C=C/c2ccc(-c3ccc(Cl)c(Cl)c3)s2)C[C@@H](C)C(=O)[C@H](C)[C@H]2NC(=O)O[C@@]21C [Example 71]	0.39 µg/mL (≈ 0.45 µM)	3.1 µg/mL (≈ 3.58 µM)	0.1 µg/mL (≈ 0.115 µM)	12.5 µg/mL (≈ 14.4 µM)	0.39 µg/mL (≈ 0.45 µM)	0.39 µg/mL (≈ 0.45 µM)	0.39 µg/mL (≈ 0.45 µM)	1 µg/mL (≈ 1.15 µM)	0.125 µg/mL (≈ 0.144 µM)	12.5 µg/mL (≈ 14.4 µM)	0.39 µg/mL (≈ 0.45 µM)	> 100 µg/mL	0.39 µg/mL (≈ 0.45 µM)	0.1 µg/mL (≈ 0.115 µM)	0.39 µg/mL (≈ 0.45 µM)	0.39 µg/mL (≈ 0.45 µM)	> 100 µg/mL	0.125 µg/mL (≈ 0.144 µM)	0.39 µg/mL (≈ 0.45 µM)	4 µg/mL (≈ 4.62 µM)	MIC [19]: 16 µg/mL (≈ 18.5 µM); MIC [20]: 0.39 µg/mL (≈ 0.45 µM); MIC [21]: 0.39 µg/mL (≈ 0.45 µM); MIC (Escherichia coli SS): 3.1 µg/mL (≈ 3.58 µM); MIC [22]: 0.39 µg/mL (≈ 0.45 µM); MIC [23]: 0.05 µg/mL (≈ 0.0577 µM); MIC (Escherichia coli DC-2): > 100 µg/mL
